Where “and” joins values, the source holds several entries; their conditions need not be identical. Identical values can stand only once. Square brackets hold non-standard residues; d marks the D form. Peptide text beside a SMILES is read from it. ξ: configuration not given here. Ac5c = NC1(C(=O)O)CCCC1; ξS = NC(CO)C(=O)O
Test system: Swiss mice, Sarcoma 180 sc, mean tumor weight T/C
Assay: NCI In Vivo Anticancer Drug Screen. Data for tumor model Sarcoma 180 (subcutaneous) in Swiss mice
Settings: endpoint: mean tumor weight, higher = larger tumour
Procedure, shortened: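 Mice bearing transplanted tumors were treated with compound, and survival or tumor size was measured. Values are expressed as the treated-group measurement (T) divided by the vehicle-treated control measurement (C).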

[1] = dose: 100.0 mg/kg/injection, schedule: Q01DX007 (ip), vehicle: water

In the case of `Cc1[nH]ccc2c(C)c3nc4ccccc4c3cc12`, the T/C (dose: 25.0 mg/kg/injection, schedule: Q01DX007 (ip), vehicle: water) is reported as 171 % of control, the T/C (dose: 50.0 mg/kg/injection, schedule: Q01DX007 (ip), vehicle: water) is reported as 122 % of control and the T/C [1] is reported as 116 % of control. For the same molecule, the T/C (dose: 200.0 mg/kg/injection, schedule: Q01DX007 (ip), vehicle: water) was 42 % of control.

For `CC(=O)OCC(=O)[C@@]1(O)CC[C@H]2[C@@H]3C[C@H](C)C4=CC(=O)C=C[C@]4(C)[C@H]3[C@@H](O)C[C@@]21C`, the T/C (dose: 7.5 mg/kg/injection, schedule: Q01DX007 (sc), vehicle: steriod suspending solution) was 122 % of control, the T/C (dose: 10.0 mg/kg/injection, schedule: Q01DX007 (sc), vehicle: steriod suspending solution) was 59 % of control and the T/C (dose: 11.3 mg/kg/injection, schedule: Q01DX007 (sc), vehicle: steriod suspending solution) was 93 % of control. For the same molecule, the T/C (dose: 20.0 mg/kg/injection, schedule: Q01DX007 (sc), vehicle: steriod suspending solution) was 55 % of control, the T/C (dose: 27.0 mg/kg/injection, schedule: Q01DX007 (sc), vehicle: steriod suspending solution) was 41 % of control and the T/C (dose: 40.0 mg/kg/injection, schedule: Q01DX007 (sc), vehicle: steriod suspending solution) was 34 % of control. For the same molecule, the T/C (dose: 44.4 mg/kg/injection, schedule: Q01DX007 (sc), vehicle: steriod suspending solution) was 26 % of control, the T/C (dose: 66.6 mg/kg/injection, schedule: Q01DX007 (sc), vehicle: steriod suspending solution) was 39 % of control and the T/C (dose: 100.0 mg/kg/injection, schedule: Q01DX007 (sc), vehicle: steriod suspending solution) was 40 % of control.

For `CCOC(=O)C(CO)NC(=O)C1(NC(C)=O)CCCC1` (configuration not stated) (Ac-[Ac5c]-[ξS]-OEt), the T/C (dose: 66.0 mg/kg/injection, schedule: Q01DX007 (ip), vehicle: water) was 97 % of control, the T/C [1] was 94 % of control and the T/C (dose: 150.0 mg/kg/injection, schedule: Q01DX007 (ip), vehicle: water) was 83 % of control. The T/C (dose: 225.0 mg/kg/injection, schedule: Q01DX007 (ip), vehicle: water) was 74 % of control.

With `Cc1cc(=O)[nH]c(N=Nc2c(O)[nH]c3ccccc23)n1` the T/C (dose: 222.0 mg/kg/injection, schedule: Q01DX007 (ip), vehicle: saline) was 58 % of control, the T/C (dose: 333.0 mg/kg/injection, schedule: Q01DX007 (ip), vehicle: saline) was 75 % of control and the T/C (dose: 500.0 mg/kg/injection, schedule: Q01DX007 (ip), vehicle: saline) was 43 % of control. For the same molecule, the T/C (dose: 750.0 mg/kg/injection, schedule: Q01DX007 (ip), vehicle: saline) was 59 % of control.

For `Nc1ccc(C(=O)NCCCC(=O)O)cc1`, the T/C (dose: 125.0 mg/kg/injection, schedule: Q01DX007 (ip), vehicle: water) was 101 % of control and the T/C (dose: 500.0 mg/kg/injection, schedule: Q01DX007 (ip), vehicle: water) was 90 % of control.

In the case of `CCCCN(C)N=Nc1ccc(OCC(=O)OCC)cc1`, the T/C (dose: 7.0 mg/kg/injection, schedule: Q01DX007 (ip), vehicle: saline) is reported as 111 % of control, the T/C (dose: 10.0 mg/kg/injection, schedule: Q01DX007 (ip), vehicle: saline) is reported as 93 % of control and the T/C (dose: 15.0 mg/kg/injection, schedule: Q01DX007 (ip), vehicle: saline) is reported as 111 % of control. The T/C (dose: 23.0 mg/kg/injection, schedule: Q01DX007 (ip), vehicle: saline) was 95 % of control.

With `[N-]=[N+]=CC(=O)CCC(N)C(=O)O` (configuration not stated) the T/C (dose: 12.5 mg/kg/injection, schedule: Q#A X014 (ip), vehicle: saline) was 45 % of control and 59 % of control, the T/C (dose: 25.0 mg/kg/injection, schedule: Q#A X014 (ip), vehicle: saline) was 6 % of control and 17 % of control and the T/C (dose: 25.0 micrograms/kg/injection, schedule: Q01DX007 (ip), vehicle: carboxymethylcellulose (CMC)) was 70 % of control. The T/C (dose: 50.0 micrograms/kg/injection, schedule: Q01DX007 (ip), vehicle: carboxymethylcellulose (CMC)) was 51 % of control and the T/C (dose: 100.0 micrograms/kg/injection, schedule: Q01DX007 (ip), vehicle: carboxymethylcellulose (CMC)) was 8 % of control.

— PubChem BioAssay AID342 (DTP/NCI, 2004)
